Measured values as given in patent US10335373B2, “Tamper resistant and dose-dumping resistant pharmaceutical dosage form” (GRÜNENTHAL GMBH, priority 2012, dated 2019).
Counter-ions that a name gives are not always drawn.

With `C=CCN1CC[C@]23c4c5ccc(O)c4O[C@H]2C(=O)CC[C@@]3(O)[C@H]1C5` [naloxone hydrochloride] as the compound, how does the “solubility in aqueous ethanol” value read?
Its value is “soluble”.
